In assay [1] the test system is S. aureus ATCC 25923. Put plainly: MIC values predetermined using MALDI-TOF MS system (Vitek MS). The class given is cell-based, Staphylococcus aureus.
Assay [2] relates to S. aureus clinical strain P-3. The description is as above. Type of assay: cell-based, Staphylococcus aureus.

Values after ≈ are worked out from the molar mass of the structure shown. Like-named read-outs stand apart in the source and are kept apart here.

As usually defined, the MIC is the lowest concentration found to suppress growth.

Take `CO[C@H]1/C=C/O[C@@]2(C)Oc3c(C)c(O)c4c(O)c(c(/C=N/N5CCN(C)CC5)c(O)c4c3C2=O)NC(=O)/C(C)=C\C=C\[C@H](C)[C@H](O)[C@@H](C)[C@@H](O)[C@@H](C)[C@H](OC(C)=O)[C@@H]1C` [RIF, rifampicin]: the MIC in assay [1] (Staphylococcus aureus, ATCC25923, S. aureus ATCC 25923, read-out: MIC) was determined as 0.008 µg/mL (≈ 0.00972 µM); in assay [2] (Staphylococcus aureus, S. aureus clinical strain P-3, read-out: MIC) it was 0.008 µg/mL (≈ 0.00972 µM).

Take `CN[C@H](CC(C)C)C(=O)N[C@H]1C(=O)N[C@@H](CC(N)=O)C(=O)N[C@H]2C(=O)N[C@H]3C(=O)N[C@H](C(=O)N[C@H](C(=O)O)c4cc(O)cc(O)c4-c4cc3ccc4O)[C@H](O)c3ccc(c(Cl)c3)Oc3cc2cc(c3O[C@@H]2O[C@H](CO)[C@@H](O)[C@H](O)[C@H]2O[C@H]2C[C@](C)(N)[C@H](O)[C@H](C)O2)Oc2ccc(cc2Cl)[C@H]1O` [VAN, Vancomycin]: the MIC turned out to be 2 µg/mL (≈ 1.38 µM) in assay [1] (Staphylococcus aureus, ATCC25923) and 1 µg/mL (≈ 0.69 µM) in assay [2] (Staphylococcus aureus).

Take gentamicin: the MIC came to 0.064 µg/mL in assay [1] (S. aureus ATCC 25923) and 0.5 µg/mL in assay [2] (S. aureus clinical strain P-3).

Values taken from patent US20250152661A1, “NOVEL COMBINATION TREATMENT REGIMEN OF BACTERIAL INFECTIONS” (BONE SUPPORT AB, priority 2022, published 2025).
